# From patent US20260015350A1, “AZAQUINAZOLINE PAN-KRAS INHIBITORS” (Mirati Therapeutics, Inc., priority 2022, published 2026)
# Legend:
# [1] = tested on: KRas-mediated phosphorylation of ERK in AsPC-1 cells; test: Inhibition of KRas-mediated phosphorylation of ERK (Cisbio HTRF pERK), AsPC-1 cells; assay type: cell-based; settings: Homo sapiens, ASPC1, AsPC-1 cells; HTRF pERK
# In short: (§1)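 Min control wells contained 0.2 uM Trametinib, while test compounds ran as 10 doses (3-fold, top 10 uM; 0.8% DMSO final) on cells for 3 hrs. After 40 mins lysis at 4° C, lysates were probed with HTRF antibodies for 2 hrs at room temperature.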
# [2] = target: T1, KRas^G12S (Homo sapiens, UniProt P01116, G12S); test: KRas binding assay (TR-FRET tracer displacement), KRas G12S; settings: for IC50: TR-FRET tracer displacement, KRas G12S
# T1 construct: Biotinylated KRas (corresponding to amino acids 1-169, produced at Accelegan Inc.); biotin (biotinylated); purchased Accelegan Inc
# [3] = target: T2, KRas^G13D (Homo sapiens, UniProt P01116, G13D); test: KRas binding assay (TR-FRET tracer displacement), KRas G13D; settings: for IC50: TR-FRET tracer displacement, KRas G13D
# T2 construct: Biotinylated KRas (corresponding to amino acids 1-169, produced at Accelegan Inc.); biotin (biotinylated); purchased Accelegan Inc
# [4] = target: T3, KRas^G12V (Homo sapiens, UniProt P01116, G12V); test: KRas binding assay (TR-FRET tracer displacement), KRas G12V
# T3 construct: Biotinylated KRas (corresponding to amino acids 1-169, produced at Accelegan Inc.); biotin (biotinylated); purchased Accelegan Inc
# [5] = target: T4, KRas^G12C (Homo sapiens, UniProt P01116, G12C); test: KRas binding assay (TR-FRET tracer displacement), KRas G12C; settings: for IC50: TR-FRET tracer displacement, KRas G12C
# T4 construct: Biotinylated KRas (corresponding to amino acids 1-169, produced at Accelegan Inc.); biotin (biotinylated); purchased Accelegan Inc
# [6] = tested on: KRas-mediated phosphorylation of ERK in H358 cells; test: Inhibition of KRas-mediated phosphorylation of ERK (Cisbio HTRF pERK), H358 cells; assay type: cell-based; settings: Homo sapiens; for inhibition at 0.1 µM: NCI-H358, 3 h, single point, 100 nM compound, 3 hrs; for IC50: NCI-H358, HTRF pERK
# In short: as §1
# [7] = tested on: KRas-mediated phosphorylation of ERK in PSN1 cells; test: Inhibition of KRas-mediated phosphorylation of ERK (Cisbio HTRF pERK), PSN1 cells; assay type: cell-based; settings: Homo sapiens
# In short: (§2)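 Phospho-ERK is quantified by HTRF with the Advanced pERK kit. Cells go in at 6,000/well in RPMI plus 10% FBS overnight at 37° C. under 5% CO2, with a 4-hour covered room-temperature incubation ahead of the read.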
# [8] = target: T5, KRas^G12D (Homo sapiens, UniProt P01116, G12D); test: KRas binding assay (TR-FRET tracer displacement), KRas G12D
# T5 construct: Biotinylated KRas (corresponding to amino acids 1-169, produced at Accelegan Inc.); biotin (biotinylated); purchased Accelegan Inc
# [9] = target: T6, KRas^G12R (Homo sapiens, UniProt P01116, G12R); test: KRas binding assay (TR-FRET tracer displacement), KRas G12R
# T6 construct: Biotinylated KRas (corresponding to amino acids 1-169, produced at Accelegan Inc.); biotin (biotinylated); purchased Accelegan Inc
# [10] = tested on: KRas-mediated phosphorylation of ERK in A549 cells; test: Inhibition of KRas-mediated phosphorylation of ERK (Cisbio HTRF pERK), A549 cells; assay type: cell-based; settings: Homo sapiens; for inhibition at 0.1 µM: A549, 3 h, single point, 100 nM compound, 3 hrs; for IC50: HTRF pERK
# In short: (§3)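 6,000 cells/well; cpd 10 uM top, 3-fold x10, 0.8% DMSO final; 3 hr incubation; Min ctrl Trametinib 0.2 uM; lysis 40 min 4° C shaking; d2 + Cryptate Ab mix, 2 hr RT; HTRF read.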
# [11] = tested on: KRas-mediated phosphorylation of ERK in MKN1 cells; test: Inhibition of KRas-mediated phosphorylation of ERK (Cisbio HTRF pERK), MKN1 cells; assay type: cell-based; settings: Homo sapiens, MKN-1
# In short: as §2
# [12] = tested on: KRas-mediated phosphorylation of ERK in HCT116 cells; test: Inhibition of KRas-mediated phosphorylation of ERK (Cisbio HTRF pERK), HCT116 cells; assay type: cell-based; settings: Homo sapiens; for inhibition at 0.1 µM: HCT-116, 3 h, single point, 100 nM compound, 3 hrs; for IC50: HCT-116, HTRF pERK
# In short: as §3
# [13] = tested on: KRas-mediated phosphorylation of ERK in H727 cells; test: Inhibition of KRas-mediated phosphorylation of ERK (Cisbio HTRF pERK), H727 cells; assay type: cell-based; settings: Homo sapiens, NCI-H727, H727 cells; HTRF pERK
# In short: as §1
# [14] = target: T7, KRas^Q61H (Homo sapiens, UniProt P01116, Q61H); test: KRas binding assay (TR-FRET tracer displacement), KRas Q61H; settings: for IC50: TR-FRET tracer displacement, KRas Q61H
# T7 construct: Biotinylated KRas (corresponding to amino acids 1-169, produced at Accelegan Inc.); biotin (biotinylated); purchased Accelegan Inc
# [15] = target: T8, KRas^G12A (Homo sapiens, UniProt P01116, G12A); test: KRas binding assay (TR-FRET tracer displacement), KRas G12A; settings: for IC50: TR-FRET tracer displacement, KRas G12A
# T8 construct: Biotinylated KRas (corresponding to amino acids 1-169, produced at Accelegan Inc.); biotin (biotinylated); purchased Accelegan Inc
# [16] = tested on: KRas-mediated phosphorylation of ERK in H460 cells; test: Inhibition of KRas-mediated phosphorylation of ERK (Cisbio HTRF pERK), H460 cells; assay type: cell-based; settings: Homo sapiens; for inhibition at 0.1 µM: NCI-H460, 3 h, single point, 100 nM compound, 3 hrs; for IC50: NCI-H460, HTRF pERK
# In short: as §1
# [17] = target: T9, KRas^WT (Homo sapiens, UniProt P01116); test: KRas binding assay (TR-FRET tracer displacement), KRas WT; settings: for IC50: TR-FRET tracer displacement, KRas WT
# T9 construct: Biotinylated KRas (corresponding to amino acids 1-169, produced at Accelegan Inc.); biotin (biotinylated); purchased Accelegan Inc
# [18] = single point, 10 nM compound, TR-FRET
# T4 sequence (P01116 1-169 isoform P01116-2 G12C): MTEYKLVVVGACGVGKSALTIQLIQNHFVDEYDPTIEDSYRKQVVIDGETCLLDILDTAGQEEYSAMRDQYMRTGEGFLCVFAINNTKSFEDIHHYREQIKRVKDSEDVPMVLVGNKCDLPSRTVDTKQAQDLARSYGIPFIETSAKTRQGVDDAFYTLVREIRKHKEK
# T2 sequence (P01116 1-169 isoform P01116-2 G13D): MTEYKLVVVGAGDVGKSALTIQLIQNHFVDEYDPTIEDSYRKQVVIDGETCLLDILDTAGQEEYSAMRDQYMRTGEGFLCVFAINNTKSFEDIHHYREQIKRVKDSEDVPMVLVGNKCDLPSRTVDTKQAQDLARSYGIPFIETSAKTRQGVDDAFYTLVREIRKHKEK
# T9 sequence (P01116 1-169 isoform P01116-2): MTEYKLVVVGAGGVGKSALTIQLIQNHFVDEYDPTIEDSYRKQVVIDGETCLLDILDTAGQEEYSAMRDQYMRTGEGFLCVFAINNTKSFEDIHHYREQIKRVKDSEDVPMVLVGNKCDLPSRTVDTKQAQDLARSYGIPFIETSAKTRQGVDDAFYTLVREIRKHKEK
# T6 sequence (P01116 1-169 isoform P01116-2 G12R): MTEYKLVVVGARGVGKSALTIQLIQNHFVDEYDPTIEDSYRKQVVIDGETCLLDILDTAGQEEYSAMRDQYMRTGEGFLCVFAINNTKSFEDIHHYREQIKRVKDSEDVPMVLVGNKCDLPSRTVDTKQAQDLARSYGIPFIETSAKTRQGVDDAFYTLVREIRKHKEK
# T7 sequence (P01116 1-169 isoform P01116-2 Q61H): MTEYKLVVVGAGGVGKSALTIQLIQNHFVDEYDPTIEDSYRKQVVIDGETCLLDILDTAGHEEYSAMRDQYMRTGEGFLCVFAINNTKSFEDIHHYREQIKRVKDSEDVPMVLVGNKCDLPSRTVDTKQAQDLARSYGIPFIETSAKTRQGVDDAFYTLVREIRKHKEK
# T3 sequence (P01116 1-169 isoform P01116-2 G12V): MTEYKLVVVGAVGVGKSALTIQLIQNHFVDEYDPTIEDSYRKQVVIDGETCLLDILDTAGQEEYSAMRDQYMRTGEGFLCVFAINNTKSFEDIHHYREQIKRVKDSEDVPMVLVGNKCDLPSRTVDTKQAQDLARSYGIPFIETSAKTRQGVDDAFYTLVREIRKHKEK
# T5 sequence (P01116 1-169 isoform P01116-2 G12D): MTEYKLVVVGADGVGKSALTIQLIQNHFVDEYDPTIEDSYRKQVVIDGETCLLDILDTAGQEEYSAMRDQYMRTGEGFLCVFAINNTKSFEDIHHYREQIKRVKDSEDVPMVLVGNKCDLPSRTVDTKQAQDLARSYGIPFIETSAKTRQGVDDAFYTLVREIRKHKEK
# T8 sequence (P01116 1-169 isoform P01116-2 G12A): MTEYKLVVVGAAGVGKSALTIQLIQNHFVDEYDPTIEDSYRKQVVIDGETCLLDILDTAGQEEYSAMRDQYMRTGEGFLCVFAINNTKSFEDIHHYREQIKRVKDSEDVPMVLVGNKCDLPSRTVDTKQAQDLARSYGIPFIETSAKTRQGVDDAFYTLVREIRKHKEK
# T1 sequence (P01116 1-169 isoform P01116-2 G12S): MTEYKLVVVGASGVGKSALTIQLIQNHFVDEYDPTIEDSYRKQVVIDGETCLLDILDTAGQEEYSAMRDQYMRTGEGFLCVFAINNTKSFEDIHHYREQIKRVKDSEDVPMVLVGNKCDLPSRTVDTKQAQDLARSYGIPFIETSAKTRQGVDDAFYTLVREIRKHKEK
IC50 [1],IC50 [2],IC50 [3],IC50 [4],IC50 [5],IC50 [7],IC50 [8],IC50 [9],IC50 [11],IC50 [13],IC50 [14],IC50 [15],IC50 [17],IC50 [6],IC50 [10],IC50 [12],IC50 [16],SMILES,inhibition at 0.1 µM [6],inhibition at 0.1 µM [12],inhibition at 0.1 µM [16],also measured
420 nM,8 nM,12 nM,5 nM,10 nM,7190 nM,13 nM,7 nM,9 nM,79 nM,14 nM,10 nM,13 nM,,,,,"Oc1cc(-c2ncc3c(N4C[C@@H]5C[C@H](C4)[C@H](O)C5)nc(OC[C@@]45CCCN4C[C@H](F)C5)nc3c2F)c2ccccc2c1 [Example 737, (1R,5R,6R)-3-(8-fluoro-2-(((2R,7aS)-2-fluorohexahydro-1H-pyrrolizin-7a-yl)methoxy)-7-(3-hydroxynaphthalen-1-yl)pyrido[4,3-d]pyrimidin-4-yl)-3-azabicyclo[3.2.1]octan-6-ol]",8%,39%,27%,"inhibition at 0.01 µM [2, 18]: 60%; inhibition at 0.01 µM [3, 18]: 53%; inhibition at 0.01 µM [5, 18]: 53%; inhibition at 0.1 µM [10]: 17%; inhibition at 0.01 µM [14, 18]: 46%; inhibition at 0.01 µM [15, 18]: 47%; inhibition at 0.01 µM [17, 18]: 44%"
867 nM,5 nM,3 nM,< 2 nM,3 nM,4280 nM,< 2 nM,< 2 nM,511 nM,701 nM,< 2 nM,< 2 nM,4 nM,185 nM,815 nM,1710 nM,516 nM,"O=S1(=O)NCC2(CCCN(c3nc(OCC45CCCN4CCC5)nc4c(F)c(-c5cc(O)cc(Cl)c5C5CC5)ncc34)C2)N1 (centres unmarked) [Example 745, 7-(7-(3-chloro-2-cyclopropyl-5-hydroxyphenyl)-8-fluoro-2-((hexahydro-1H-pyrrolizin-7a-yl)methoxy)pyrido[4,3-d]pyrimidin-4-yl)-2-thia-1,3,7-triazaspiro[4.5]decane 2,2-dioxide]",,,,
704 nM,< 2 nM,< 2 nM,< 2 nM,< 2 nM,2550 nM,2 nM,< 2 nM,139 nM,220 nM,< 2 nM,< 2 nM,< 2 nM,40 nM,234 nM,134 nM,327 nM,"O=S1(=O)NCC2(CCCN(c3nc(OC[C@@]45CCCN4C[C@H](F)C5)nc4c(F)c(-c5c6ccccc6cc6[nH]ncc56)ncc34)C2)N1 (stereo partly drawn) [Example 762, 7-(7-(1H-benzo[f]indazol-4-yl)-8-fluoro-2-(((2R,7aS)-2-fluorohexahydro-1H-pyrrolizin-7a-yl)methoxy)pyrido[4,3-d]pyrimidin-4-yl)-2-thia-1,3,7-triazaspiro[4.5]decane 2,2-dioxide]",,36%,22%,
434 nM,< 2 nM,< 2 nM,< 2 nM,< 2 nM,> 10000 nM,3 nM,< 2 nM,22 nM,275 nM,< 2 nM,< 2 nM,< 2 nM,38 nM,708 nM,397 nM,184 nM,"CCc1cccc2cc3[nH]ncc3c(-c3ncc4c(N5CCCC6(C5)NC(=O)NC6=O)nc(OC[C@@]56CCCN5C[C@H](F)C6)nc4c3F)c12 (stereo partly drawn) [Example 768, 7-(7-(5-ethyl-1H-benzo[f]indazol-4-yl)-8-fluoro-2-(((2R,7aS)-2-fluorohexahydro-1H-pyrrolizin-7a-yl)methoxy)pyrido[4,3-d]pyrimidin-4-yl)-1,3,7-triazaspiro[4.5]decane-2,4-dione]",59%,8%,23%,inhibition at 0.1 µM [10]: 30%
